Results from EP1049703B1, “N-[2-(5-BENZYLOXYCARBONYL-AMINO-6-OXO-2-(4-FLUOROPHENYL)-1,6-DIHYDRO-1-PYRIMIDINYL)ACETOXYL]-L-ASPARTIC ACID ALDEHYDE AS AN IN VIVO INHIBITOR OF INTERLEUKIN-1BETA CONVERTING ENZYME” (WARNER-LAMBERT COMPANY, priority 1998, dated 1999).
pIC50, pKi: −log10 of the molar value.

Key:
Ich-2 (Caspase 4) = target: T1, Ich-2 (Caspase 4) (Homo sapiens, UniProt P49662); experiment: Ich-2 colorimetric dose-response (IC50) assay; assay type: biochemical; conditions: enzyme 64 nM, 60 µM Ac-Leu-Glu-Val-Asp-pNA
T1 sequence (P49662 81-270 limits assumed): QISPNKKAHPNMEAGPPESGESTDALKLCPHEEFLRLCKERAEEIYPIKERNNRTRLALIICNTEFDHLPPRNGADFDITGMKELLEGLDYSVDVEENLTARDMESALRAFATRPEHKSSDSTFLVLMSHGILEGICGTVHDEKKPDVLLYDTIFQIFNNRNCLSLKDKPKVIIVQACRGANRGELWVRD
T1 sequence (P49662 290-377 limits assumed): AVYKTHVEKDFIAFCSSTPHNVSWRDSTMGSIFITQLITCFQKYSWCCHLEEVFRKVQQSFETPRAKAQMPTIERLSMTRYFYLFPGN
Procedure: Inhibition of Ich-2 (Caspase 4) enzyme is assayed as described above for ICE, except that enzyme is used at 64 nM, and 60 µM of the Ich-2-specific substrate Ac-Leu-Glu-Val-Asp-pNA is used instead of the ICE substrate Ac-Tyr-Val-Ala-Asp-pNA.

ICE [1] = target: T2, ICE (Homo sapiens, UniProt P29466); experiment: ICE colorimetric dose-response (IC50) assay; assay type: biochemical; conditions: about 24 nM ICE, 60 minutes preincubation, 50 µM Ac-Tyr-Val-Ala-Asp-pNA; read-out: 2. ICE IC50
T2 sequence (P29466 120-297 limits assumed): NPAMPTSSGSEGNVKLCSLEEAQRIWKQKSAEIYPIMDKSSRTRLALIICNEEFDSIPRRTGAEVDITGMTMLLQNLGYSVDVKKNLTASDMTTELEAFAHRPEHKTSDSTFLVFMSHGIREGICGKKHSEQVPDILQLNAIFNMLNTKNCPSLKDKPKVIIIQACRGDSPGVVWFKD
T2 sequence (P29466 317-404 limits assumed): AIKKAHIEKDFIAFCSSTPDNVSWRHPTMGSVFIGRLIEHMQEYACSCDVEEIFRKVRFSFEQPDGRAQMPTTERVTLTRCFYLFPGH
Procedure: Diluted inhibitor stocks are prepared by two-fold serial dilution from a primary stock whose concentration is selected (based on screening results or on prior attempts at IC50 evaluation) to achieve approximately 95% inhibition in the most concentrated well. Aliquots of each dilution are transferred to a microtitre plate in triplicate.
ICE enzyme is diluted to approximately 24 nM in HGE buffer (100 mM Hepes pH 7.5, 0.5 mM EDTA, 20% glycerol, 0.1% Bovine Serum Albumin (BSA), and activated by adding dithiothreitol (DTT) to a final concentration of 5 mM. The activated enzyme is then aliquoted into wells containing inhibitor or vehicle, and the plate is preincubated for 60 minutes at ambient temperature. Substrate (Ac-Tyr-Val-Ala-Asp-pNA) is added to each well to a final concentration of 50 µM, and plates are placed in the microtitre plate-reader thermostated to 25°°C. Beginning 5 minutes after addition of substrate, absorbance (405 nm) of wells is monitored for 1 hour, and activity is calculated as the mean rate of change in absorbance during this interval.

ICE [2] = target: T2, ICE; experiment: ICE inhibition studies (fluorogenic substrate Ac-Tyr-Val-Ala-Asp-AMC, Ki); assay type: biochemical
Procedure: ICE (0.24 nM final concentration) is added to 400 µL of HGDE buffer (100 mM HEPES, 20% glycerol, 5 mM DTT, 0.5 mM EDTA) containing 15 µM substrate (Ac-Tyr-Val-Ala-Asp-AMC; KM = 15 µM) plus vehicle (DMSO) or inhibitor at concentrations bracketing the Ki. Substrate hydrolysis is monitored for 300 seconds by observing the fluorescence of released AMC using excitation at 380 nm and emission at 460 nm. Mean rates of substrate hydrolysis are evaluated by linear-regression analysis of the fluorescence vs time traces. To evaluate Ki, plots of percent inhibition vs inhibitor concentration are fit by non-linear regression to a reversible, competitive model: [formula] where the competition factor (1 + [S]/KM) = 2.

IL-1β production = experiment: Mouse model: LPS-induced plasma IL-1β production; assay type: in vivo, Female C57BL/6 mice; conditions: for inhibition of IL-1β production: 5 mg/kg LPS i.v. at T0, compound i.v. at 3.75 hours, plasma at T4h, compared to vehicle treated animals; for production of IL-1β (result in words): summary statement
Procedure: Female C57BL/6 mice are injected intravenously with 5 mg/kg lipopolysaccaride (LPS) (E. coli 0111:B4) at T0; this induces production of the cytokine interleukin-1β. After 3.75 hours from the administration of LPS, the mice are injected intravenously with either vehicle or a test compound. The mice are bled at T4h and plasma analyzed for IL-1β by ELISA. The vehicle is 5% DMSO/20% Trappsol/3% Dextrose/NMDG.

[3] = test system: IL-1β production in human peripheral blood mononuclear cells (PBMCs); experiment: PBMC cellular assay: LPS-stimulated IL-1β production (ELISA); assay type: cell-based; conditions: PBMCs stimulated overnight with 10 ng/mL LPS, concentration which reduces IL-1β levels by 50%, read-out: 3. PBMC IC50
Excerpt: Further evidence that compound 1 is a potent inhibitor of ICE is provided by its ability to inhibit IL-1β production in human peripheral blood mononuclear cells (PBMCs) as described herein. PBMCs are isolated from heparinized blood by centrifugation over a ficoll cushion, then washed three times with phosphate-buffered saline. PBMCs are suspended in a medium containing RPMI 1640 with glutamine, penicillin, streptomycin, and 2% human AB serum, then plated at 10^6 cells per well in 96 well flat bottom plates. PBMCs are stimulated overnight with 10 ng/mL of lipopolysaccharide (LPS, E. Coli strain 0111:B4; Calbiochem) in the presence or absence of compound 1 or 2. Medium is harvested, and the level of mature IL-1β was determined using an ELISA kit from R & D Systems. Compound inhibition is assessed by determining the concentration of agent which reduces IL-1β levels by 50%. Cells were cultured for an additional 4 hours in the presence of 3-(4, 5-dimethylthiazol-2-yl)-2, 5-diphenyltetrazolium bromide (MTT) to determine viability. Compound toxicity can, therefore, be assessed by determining the concentration of agent which kills 50% of the cells (IC50).

excitotoxic brain damage = experiment: Excitotoxic brain damage in neonatal rats; assay type: in vivo, Seven-day-old rat pups; conditions: for % Loss (percent loss of hemisphere weight): 30 mg/kg intraperitoneal 0.25 hours after 15 nMoles of MDA into right caudate nucleus, five days later; for extent of exitotoxic brain damage in rat pups (result in words): summary statement
Procedure: Compound 1 and compound 2 are tested in a model of excitotoxic brain damage in neonatal rats. Seven-day-old rat pups are anesthetized with ether, placed in a head holder and injected with 15 nMoles of MDA into the right caudate nucleus. The pups are treated by intraperitoneal injection with drug (30 mg/kg) or vehicle (0.2% methocel in water) 0.25 hours later and then returned to their home cage. Five days following this excitotoxic challenge, the pups are sacrificed, their brains removed and hemispheres weighed. The loss in weight of the injected hemisphere relative to the contralateral hemisphere is an estimate of the degree of brain necrosis. […] Importantly, such protection is not seen at the same dose of compound 2.

focal cerebral ischemia = experiment: Ischemic brain damage model: permanent (MCAOp) and transient (MCAOt) focal cerebral ischemia; assay type: in vivo, CD-1 mice
Procedure: Compound 1 is tested in both permanent (MCAOp) and transient (MCAOt) models of focal cerebral ischemia in the mouse. The middle cerebral artery is occluded by an intraluminal suture in CD-1 mice. In the transient model, the suture is withdrawn after 1 hour and in both studies, mice are sacrificed at 24 hours, and brain lesion size is determined from H and E stained sections. Drug or vehicle is administered IP at -5, 60, and 180 minutes from the time of vessel occlusion at doses of 25 and 50 mg/kg × 3 (MCAOp) or 50 mg/kg × 3 (MCAOt). In the more severe MCAOp, there is a small reduction in lesion size (13%, p <0.04, one-tailed t-test) at the high dose whereas, in the less severe MCAOt, the lesion size is 60% smaller in the drug treated mice (p <0.002).

| SMILES | pIC50 (Ich-2 (Caspase 4)) | pIC50 (ICE [1]) | Mode of Inhib. (ICE [2]) | inhibition of IL-1β production (IL-1β production) [%] | production of IL-1β (result in words) (IL-1β production) | pIC50 [3] | % Loss (percent loss of hemisphere weight) (excitotoxic brain damage) [%] | extent of exitotoxic brain damage in rat pups (result in words) (excitotoxic brain damage) | reduction in lesion size (focal cerebral ischemia; MCAOp (permanent), high dose 50 mg/kg × 3 IP at -5, 60, 180 minutes, 24 hours) [%] | lesion size smaller in drug treated mice (focal cerebral ischemia; MCAOt (transient, suture withdrawn after 1 hour), 50 mg/kg × 3 IP, 24 hours) [%] | arterial lesion size in ischemic brain damage (result in words) (focal cerebral ischemia; mice, middle cerebral artery occlusion after reperfusion, summary statement) | pKi (ICE [2]; 0.24 nM ICE, 15 µM Ac-Tyr-Val-Ala-Asp-AMC, reversible competitive model, read-out: 1. ICE Ki) |
| --- | --- | --- | --- | --- | --- | --- | --- | --- | --- | --- | --- | --- |
| O=C(O)CC(NC(=O)Cn1c(-c2ccc(F)cc2)ncc(NC(=O)OCc2ccccc2)c1=O)C(=O)COc1cc(C(F)(F)F)nn1-c1ccccc1 (centres unmarked) [Compound 2, reference compound] | 8.30 | 8.40 | irreversible | 11 | inactive | 5.66 | 20.8 | not seen | – | – | – | – |
| O=CC(CC(=O)O)NC(=O)Cn1c(-c2ccc(F)cc2)ncc(NC(=O)OCc2ccccc2)c1=O [Compound 1, N-[2-(5-benzyloxycarbonyl-amino-6-oxo-2-(4-fluorophenyl)-1,6-dihydro-1-pyrimidinyl)acetoxyl]-L-aspartic acid aldehyde] | 5.01 | 6.31 | reversible | 48 | significantly blocks | 5.74 | 16.1 | significantly reduces | 13 | 60 | reduced arterial lesion size | 7.22 |
